Laboratory results taken from US9540370B2, “Heterocyclic compounds and their use as glycogen synthase kinase-3 inhibitors” (ABBVIE DEUTSCHLAND GMBH & CO. KG, priority 2010, dated 2017).

Biological target: T1, human Glycogen Synthase Kinase-3 beta (hGSK-3β) (Homo sapiens, UniProt P49841)
T1 construct: purchased Upstate cell signaling solutions
Test: Biochemical hGSK-3Beta assay (33P incorporation into biotinylated peptide substrate)
Conditions: 10 μM ATP, 30 minutes at room temperature; read-out: GSK-3β IC50
Experimental: Methods—Biochemical hGSK-3Beta Assay
Compounds were tested for their ability to inhibit human Glycogen Synthase Kinase-3 beta (hGSK-3β) to phosphorylate biotin-[…](pS)EDEEE. Compounds were incubated with 0.5 μCi 33P-ATP, 10 μM ATP, 0.0125 U hGSK-3β (Upstate cell signaling solutions) and 1 μM substrate (biotin-[…](pS)EDEEE) in 50 mM HEPES, 10 mM MgCl2, […], 1 mM DTT, 0.0075% Triton, 2% DMSO (total volume 50 μL) for 30 minutes at room temperature. The incubation was stopped by addition of an equal volume of 100 mM EDTA, 4M NaCl. 80 μL of this mixture was added to streptavidin-coated Flash -plates (Perkin Elmer). Following a wash step, 33P incorporation was quantified on a MicroBeta microplate liquid scintillation counter (PerkinElmer). IC50s were determined by fitting a sigmoidal dose-response curve to the counts obtained at the different concentrations in GraphPad Prism.

T1 sequence (P49841 whole entry): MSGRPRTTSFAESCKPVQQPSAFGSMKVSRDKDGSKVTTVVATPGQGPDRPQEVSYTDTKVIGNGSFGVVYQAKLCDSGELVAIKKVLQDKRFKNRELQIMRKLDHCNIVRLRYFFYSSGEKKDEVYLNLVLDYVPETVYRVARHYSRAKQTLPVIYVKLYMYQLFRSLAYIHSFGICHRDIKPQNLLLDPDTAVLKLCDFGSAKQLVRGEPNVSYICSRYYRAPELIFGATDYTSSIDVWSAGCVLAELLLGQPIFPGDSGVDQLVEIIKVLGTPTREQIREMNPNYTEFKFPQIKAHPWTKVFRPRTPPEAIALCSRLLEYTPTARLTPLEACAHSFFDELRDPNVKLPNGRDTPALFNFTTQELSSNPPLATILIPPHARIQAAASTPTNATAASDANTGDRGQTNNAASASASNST

IC50, < 0.1 µM:
O=C(Nc1cccc(C(F)(F)F)n1)Nc1ccnc2c(I)cccc12 [Example 24, 1-(8-Iodoquinolin-4-yl)-3-(6-trifluoromethyl-pyridin-2-yl)-urea]
N#Cc1cccc2c(NC(=O)Nc3cccc(C(F)(F)F)n3)ccnc12 [Example 23]
O=C(Nc1cccc(C(F)(F)F)n1)Nc1ccnc2ccccc12 [Example 17, 1-(6-(Trifluoromethyl)pyridin-2-yl)-3-quinolin-4-yl-urea]
O=C(Nc1cccc(C(F)(F)F)n1)Nc1ccnc2c(F)cc(F)cc12 [Example 18, 1-(6,8-Difluoroquinolin-4-yl)-3-(6-trifluoromethyl-pyridin-2-yl)-urea]
O=C(Nc1cccc(C2=CCOCC2)n1)Nc1ccnc2c(F)cccc12 [Example 1, 1-(6-(3,6-Dihydro-2H-pyran-4-yl)pyridin-2-yl)-3-(8-fluoroquinolin-4-yl)urea]
O=C(Nc1cccc(C(F)(F)F)n1)Nc1ccnc2ccc(Br)cc12 [Example 16, 1-(6-Bromo-quinolin-4-yl)-3-(6-trifluoromethyl-pyridin-2-yl)-urea]
O=C(Nc1cccc(C(F)(F)F)n1)Nc1ccnc2cc(Br)ccc12 [Example 19, 1-(7-Bromoquinolin-4-yl)-3-(6-trifluoromethyl-pyridin-2-yl)-urea]
COc1ccc2c(NC(=O)Nc3cccc(C(F)(F)F)n3)ccnc2c1 [Example 21, 1-(7-Methoxyquinolin-4-yl)-3-(6-trifluoromethyl-pyridin-2-yl)-urea]
O=C(Nc1cccc(C2=COCCC2)n1)Nc1ccnc2c(F)cccc12 [Example 3, 1-(6-(3,4-Dihydro-2H-pyran-5-yl)pyridin-2-yl)-3-(8-fluoroquinolin-4-yl)urea]
O=C(Nc1cccc(C2CCOCC2)n1)Nc1ccnc2c(F)cccc12 [Example 2, 1-(8-Fluoroquinolin-4-yl)-3-(6-(tetrahydro-2H-pyran-4-yl)pyridin-2-yl)urea]
